Laboratory results as given in patent US20260042764A1, “COMPOSITIONS AND METHODS FOR INHIBITION OF KRAS” (TheRas, Inc., priority 2022, published 2026).

How the values were obtained:
[1] = biological target: T1, Avi-KRAS G12D (1-169) GppNHp/RAF1 RBD-3xFLAG (52-151) (Homo sapiens, UniProt P01116, G12D); experiment: Raf1-KRAS G12D-GppNHP disruption HTRF assay (Biological Example 1); format: binding
T1 construct: Avi-KRAS G12D (1-169)
In short: (§1)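 Using HTRF, the loss of KRAS–effector RAF1 complex was quantified in 50 mM Tris pH 7.5 buffer with 100 mM NaCl and 0.1% BSA. The protein step and reagent step ran 1 h each at room temperature. Activity normalized with DMSO taken as 100%.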

[2] = biological target: T2, Avi-KRAS G12R (1-169) GppNHp/RAF1 RBD-3xFLAG (52-151) (Homo sapiens, UniProt P01116, G12R); experiment: Raf1-KRAS G12R-GppNHP disruption HTRF assay (Biological Example 1); format: binding
T2 construct: Avi-KRAS G12R (1-169)
In short: as §1

GP2d cells (KRAS G12D) = experiment: Cell-based pERK HTRF assay in GP2d cell (Biological Example 2); details: GP2d (KRAS G12D) cells
In short: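 Phospho-ERK in lysed cells was detected by HTRF using Eu cryptate and d2 antibodies, read between 4 and 24 h at room temperature. Prior to lysis, KRAS G12D GP2d cells, seeded the day before in DMEM with 10% FBS, were exposed to compounds for 60 min. Compounds were tested as 9-point half-log curves from 1 μM or 100 nM top, with 0.25% DMSO.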

[3] = biological target: T3, Avi-KRAS WT (2-169) GTP/RAF1 RBD-3xFLAG (51-131) (Homo sapiens, UniProt P01116); experiment: Raf1-KRAS WT-GTP disruption HTRF assay (Biological Example 3); format: binding; details: KRAS WT, GTP-loaded
T3 construct: Avi-KRAS WT (2-169)
In short: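 Each KRAS-GTP/RAF1 RBD complex at 50 nM, with 75 nM 3xFLAG-RAF1 RBD (51-131)-Avi, in 50 mM Tris pH 7.5, 100 mM NaCl, 5 mM MgCl2, 0.1% BSA, 0.01% Tween 20, 10% DMSO. Compounds titrated from 30 μM, 10-point 3x series; 1 h at room temperature with shaking. HTRF read, activity as percent of DMSO.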

[4] = KRAS G12D, GppNHp-loaded, Table 11
[5] = KRAS G12R, GppNHp-loaded, Table 11
[6] = KRAS G12D, GppNHp-loaded, class symbols
[7] = KRAS G12R, GppNHp-loaded, class symbols

T2 sequence (P01116 1-169 isoform P01116-2 G12R): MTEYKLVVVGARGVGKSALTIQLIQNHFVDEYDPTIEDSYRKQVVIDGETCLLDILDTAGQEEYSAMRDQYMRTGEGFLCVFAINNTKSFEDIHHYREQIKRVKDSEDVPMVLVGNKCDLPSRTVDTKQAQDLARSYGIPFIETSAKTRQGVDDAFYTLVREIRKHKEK
T3 sequence (P01116 2-169 isoform P01116-2): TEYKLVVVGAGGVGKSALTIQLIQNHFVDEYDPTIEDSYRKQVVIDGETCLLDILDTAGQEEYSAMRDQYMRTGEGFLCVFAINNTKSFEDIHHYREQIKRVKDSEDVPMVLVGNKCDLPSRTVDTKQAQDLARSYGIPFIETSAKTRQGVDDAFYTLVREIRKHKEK
T1 sequence (P01116 1-169 isoform P01116-2 G12D): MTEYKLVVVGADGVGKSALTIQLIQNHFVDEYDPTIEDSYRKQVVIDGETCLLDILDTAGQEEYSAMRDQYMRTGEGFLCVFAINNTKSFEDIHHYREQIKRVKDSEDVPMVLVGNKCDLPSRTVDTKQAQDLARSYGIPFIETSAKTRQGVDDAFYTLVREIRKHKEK

Row | IC50 ([1]; KRAS G12D-GppNHp/RAF1 RBD HTRF) | IC50 ([2]; KRAS G12R-GppNHp/RAF1 RBD HTRF) | IC50 (GP2d cells (KRAS G12D); GP2d, pERK HTRF) | IC50 [1, 4] | IC50 [2, 5] | IC50 [1, 6] | IC50 [2, 7] | IC50 (GP2d cells (KRAS G12D); GP2d) | IC50 (GP2d cells (KRAS G12D); GP2d, pERK HTRF, class symbols) | IC50 [3] | IC50 (GP2d cells (KRAS G12D)) | IC50 (GP2d cells (KRAS G12D); pERK HTRF) | SMILES
1 | 100 to 1000 nM | 100 to 1000 nM | < 100 nM | – | – | – | – | – | – | – | – | – | C[C@@H]1[C@H](N(C)c2nc(OC[C@@]34CCCN3C[C@H](F)C4)nc3c(F)c(-c4ccc(F)c5sc(N)c(C#N)c45)c(C(F)(F)F)cc23)CC(=O)N1C [Compound 440]
2 | – | – | < 100 nM | 100 to 1000 nM | 100 to 1000 nM | – | – | – | – | – | – | – | N#Cc1c(N)sc2c(F)ccc(-c3c(C(F)(F)F)cc4c(N5CCC[C@@H](O)C5)nc(OC[C@@]56CCCN5C[C@H](F)C6)nc4c3F)c12 [Compound 234]
3 | – | – | – | – | – | < 100 nM | < 100 nM | < 100 nM | < 100 nM | 100 to 1000 nM | – | – | CCN(c1nc(OC[C@@]23CCCN2C[C@H](F)C3)nc2c(F)c(-c3ccc(F)c4sc(N)c(C#N)c34)c(C(F)(F)F)cc12)[C@H]1CCN(C(=O)C2CC2(F)F)C1 (some centres unmarked) [Compound 581]
4 | 100 to 1000 nM | 100 to 1000 nM | < 100 nM | – | – | – | – | < 100 nM | – | 100 to 1000 nM | – | – | CCN(c1nc(OC[C@@]23CCCN2C[C@H](F)C3)nc2c(F)c(-c3ccc(F)c4sc(N)c(C#N)c34)c(C(F)(F)F)cc12)[C@@H]1CCN(C(=O)C2CC2)C1 [Compound 329]
5 | – | – | – | – | – | < 100 nM | < 100 nM | < 100 nM | < 100 nM | ≤ 100 nM | – | – | CCN(c1nc(OC[C@@]23CCCN2C[C@H](F)C3)nc2c(F)c(-c3ccc(F)c4sc(N)c(C#N)c34)c(C(F)(F)F)cc12)[C@H]1CCN(C(=O)N(C)C)[C@@H]1C (atropisomer, axis not shown) [Compound 749]
6 | – | – | – | – | – | < 100 nM | < 100 nM | < 100 nM | < 100 nM | 100 to 1000 nM | – | – | CCN(c1nc(OC[C@@]23CCCN2C[C@H](F)C3)nc2c(F)c(-c3ccc(F)c4sc(N)c(C#N)c34)c(C(F)(F)F)cc12)[C@H]1CCN(C(=O)N2CCN(C(C)=O)CC2)C1 (atropisomer, axis not shown) [Compound 619]
7 | 100 to 1000 nM | 100 to 1000 nM | < 100 nM | – | – | – | – | – | – | – | – | – | CC(=O)N1CC[C@@H](N(C)c2nc(OC[C@@]34CCCN3C[C@H](F)C4)nc3c(F)c(-c4ccc(F)c5sc(N)c(C#N)c45)c(Cl)cc23)[C@H]1C [Compound 398]
8 | 100 to 1000 nM | 100 to 1000 nM | < 100 nM | – | – | – | – | < 100 nM | – | 100 to 1000 nM | – | – | CC(=O)N1C[C@H](N(C)c2nc(OC[C@@]34CCCN3C[C@H](F)C4)nc3c(F)c(-c4ccc(F)c5sc(N)c(C#N)c45)c(C(F)(F)F)cc23)C[C@@H]1C [Compound 298]
9 | 100 to 1000 nM | 100 to 1000 nM | – | – | – | – | – | – | – | 100 to 1000 nM | < 100 nM | < 100 nM | CC(=O)N1CC(N(C)c2nc(OCC34CCCN3CC(F)C4)nc3c(F)c(-c4ccc(F)c5sc(N)c(C#N)c45)c(C(F)(F)F)cc23)CC1C (centres unmarked) [Compound 291]
10 | – | – | – | – | – | < 100 nM | < 100 nM | < 100 nM | < 100 nM | 100 to 1000 nM | – | – | CCN(c1nc(OC[C@@]23CCCN2C[C@H](F)C3)nc2c(F)c(-c3ccc(F)c4sc(N)c(C#N)c34)c(C(F)(F)F)cc12)[C@H]1C[C@H](COC)N(C(=O)C2CC2)C1 (atropisomer, axis not shown) [Compound 696]
11 | – | – | – | – | – | < 100 nM | < 100 nM | < 100 nM | < 100 nM | 100 to 1000 nM | – | – | CCN(c1nc(OC[C@@]23CCCN2C[C@H](F)C3)nc2c(F)c(-c3ccc(F)c4sc(N)c(C#N)c34)c(C(F)(F)F)cc12)[C@H]1CC(=O)N(C)C1 (atropisomer, axis not shown) [Compound 614]
12 | – | – | < 100 nM | < 100 nM | < 100 nM | – | – | – | – | – | – | – | C[C@@H]1[C@H](N(C)c2nc(OC[C@@]34CCCN3C[C@H](F)C4)nc3c(F)c(-c4ccc(F)c5sc(N)c(C#N)c45)c(C(F)(F)F)cc23)CCN1C(=O)C1CC1 [Compound 258]
13 | – | – | – | < 100 nM | < 100 nM | – | – | < 100 nM | – | 100 to 1000 nM | – | < 100 nM | CC(=O)N1CC[C@@H](N(C)c2nc(OC[C@@]34CCCN3C[C@H](F)C4)nc3c(F)c(-c4ccc(F)c5sc(N)c(C#N)c45)c(C(F)(F)F)cc23)[C@H]1C (single isomer, unassigned) [Compound 193]
14 | 100 to 1000 nM | 100 to 1000 nM | < 100 nM | – | – | – | – | < 100 nM | – | 100 to 1000 nM | – | – | N#Cc1c(N)sc2c(F)ccc(-c3c(C(F)(F)F)cc4c(N5C[C@H]6C[C@@H]5CO6)nc(OC[C@@]56CCCN5C[C@H](F)C6)nc4c3F)c12 (single isomer, unassigned) [Compound 287]
